Test system: porcine islets
Assay: Static glucose stimulation (SGS): in vitro insulin secretion of porcine islets in culture
Assay type: cell-based
Text: Static glucose stimulation (SGS) is used to assess in vitro function of the porcine islets by exposing them to low and high concentrations of glucose and theophylline. Determination of the in vitro insulin secretory capacity is undertaken on both free islets (after 3 days in culture) and after their subsequent encapsulation.
Keep the cells 3 days in culture before Static Glucose Stimulation (SGS). SGS involves exposure of the cells to low and high concentration of glucose to check insulin production. […]
Islet endocrine function was assessed after 3 days in culture via static glucose stimulation.

[1] = Incubated 24 hrs with 1.0 ug/ml IgF-1

Compound: CCN(CC)CC(=O)Nc1c(C)cccc1C [Lignocaine, reference compound]
- Increase in insulin secretion in response to glucose challenge (Lignocaine during digestion, after 3 days in culture): 3 fold
- Insulin secretion in response to 19.4 mM Glucose + 10 mM Theophyline after 3 days culture post isolation (islets isolated by Collagenase digestion, with or without 1 mM Lignocaine): 163.8 uU/hr/100 IEQ

Compound: Human Insulin-like Growth Factor I [IgF-1]
- Insulin secretion in response to 19.4 mM Glucose + 10 mM Theophylline, increase compared to control (3 days post IgF-1 exposure): 1.5-fold increase
- Insulin secretion in response to 19.4 mM Glucose + 10 mM Theophylline, increase compared to control (14 days post IgF-1 exposure): 1.3-fold increase
- Concentration in culture sufficient to produce optimal insulin secretion during glucose challenge (IgF-1 tested at 0.1 and 1.0 ug/ml): 0.1 µg/mL
- Insulin secretion in response to 19.4 mM Glucose + 10 mM Theophylline after 3 days culture post isolation (Incubated 24 hrs with 0.1 ug/ml IgF-1, concentration comparison, different islet preparation): 58 uU/hr/100 IEQ
- Insulin secretion in response to 19.4 mM Glucose + 10 mM Theophylline after 3 days culture post isolation (Incubated 24 hrs with 0.1 ug/ml IgF-1 after isolation, control 75.2): 236 uU/hr/100 IEQ
- Insulin secretion in response to 19.4 mM Glucose + 10 mM Theophylline 7 days post isolation [1]: 57.5 uU/hr/100 IEQ
- Insulin secretion in response to 19.4 mM Glucose + 10 mM Theophylline after 3 days culture post isolation [1]: 56.8 uU/hr/100 IEQ
- Insulin secretion in response to 19.4 mM Glucose + 10 mM Theophylline after 3 days culture post isolation (Incubated 3 days with 0.1 ug/ml IgF-1 without Nicotinamide, media without nicotinamide alone 55.9): 47.6 uU/hr/100 IEQ
- Insulin secretion in response to 19.4 mM Glucose + 10 mM Theophylline 7 days post isolation (Incubated 7 days with 0.1 ug/ml IgF-1): 58 uU/hr/100 IEQ
- Increase of insulin response to glucose (porcine islets in culture exposed to IgF-1): ≤ 3 fold
- Benefit of culturing the islets beyond a 24 hrs period post isolation (variations on the duration of IgF-1 exposure): no increased benefit

Compound: IgF-2: insulin-like growth factor expressed in many cell types, used in islet culture at 0.1 ug/ml
- Effect on insulin production of porcine islet cells (0.1 ug/ml IgF-2, initial exposure of 24 hrs, transient to 3 days post exposure): appeared to increase insulin production
- Insulin secretion in response to 19.4 mM Glucose + 10 mM Theophyline after 3 days culture post isolation (Incubated 24 hrs with 0.1 ug/ml IgF-2 day 1, control 75.2): 105.8/100 IEQ
- Insulin secretion in response to 19.4 mM Glucose + 10 mM Theophyline after 3 days culture post isolation (Incubated 24 hrs with 0.1 ug/ml IgF-2 day 1, second table, control 39.8): 32 uU/hr/100 IEQ
- Insulin secretion in response to 19.4 mM Glucose + 10 mM Theophyline after 7 days culture post isolation (Incubated 7 days with 0.1 ug/ml IgF-2, control 39.8): 38.4 uU/hr/100 IEQ
- Effect on insulin production of the islet cells in response to glucose (prolonged exposure to IgF-2 beyond 24 hrs): failed to increase

From patent publication US8142769B2, “Preparation and xenotransplantation of porcine islets” (Diabcell Pty Ltd, priority 2000, dated 2012)
